This data set is described as follows: log P by HPLC on reversed-phase column (C18), EEC Directive 79/831 Annex V.A8. It is filed as physicochemical. Conditions: C18, 40° C.; for log p HCO2H: aqueous formic acid / acetonitrile; for log p H3PO4: 0.1% aqueous phosphoric acid / acetonitrile. The method, then: The log P data were determined in accordance with the EEC Directive 79/831 Annex V.A8 by HPLC (High Performance Liquid Chromatography) on a reversed-phase column (C18) using the following methods: […]
Calibration was carried out with the help of unbranched alkan-2-ones (consisting of 3 to 13 or 16 carbon atoms) with known logP values (determination of the logP values via the retention times by means of linear interpolation between two subsequent alkanones).

On to `Cc1cc(Oc2nc(C(C)(C)C)ns2)c(Cl)cc1N=CN1CCCCC1` [compound 610], for which the log p acidic stood at 2.21 and the “log p HCO2H” value is given as 2.21.

`Cc1cc(Oc2ccc(Cl)c(C(C)C)c2)c(Cl)cc1N=CN(C)C1CC1` [compound 402]: the “log p HCO2H” value was found to be 2.96 and the log p neutral worked out at 6.60.

As to `Cc1cc(-c2cccc(C(C)C)c2)c(C(F)F)cc1N=CN1CCCCC1` [compound 799], the log p acidic was found to be 2.6.

Take `Cc1cc(Oc2ccc(F)c(C(F)(F)F)c2)c(C)cc1N=CN(C)C` [compound 365]: the “log p HCO2H” value stood at 2.37.

As for `CCN(C)C=Nc1cc(C)c(Oc2nc(C(C)(C)C)ns2)cc1Cl` [compound 916], the log p acidic is recorded as 2.1 and the log p neutral was determined as 4.92.

Turning to `CCN(C)C=Nc1cc(Cl)c(Oc2cccc(C(C)(C)C)c2)cc1I` [compound 862], the log p acidic is 2.98.

Compound `CCN(C)C=Nc1cc(C)c(Oc2cccc(-c3cccnc3Cl)c2)cc1C` [compound 130] registered a log p acidic of 2.05 and a log p neutral of 4.53.

`CCN(C)C=Nc1cc(F)c(-c2ccc(C(C)(C)C)cc2)cc1C` [compound 669]: the log p acidic came to 2.38.

As to `Cc1cc(N=CN2CCCCC2)c(Cl)cc1Oc1cccc(C(C)(C)C)c1` [compound 873], the “log p H3PO4” value was determined as 3, the “log p HCO2H” value is 2.79 and the log p neutral turned out to be 6.42.

As for `Cc1cc(-c2ccc(Cl)cc2)c(F)cc1N=CN(C)C` [compound 663], the “log p H3PO4” value was 2.04.

Take `CCN(C)C=Nc1cc(C(F)(F)F)c(Oc2cccc(C(C)(C)C)c2)cc1C` [compound 761]: the log p acidic worked out at 2.94.

Take `CCCN(C)C=Nc1cc(Cl)c(Oc2ccc(Cl)c(C(C)(C)C)c2)cc1C` [compound 578]: the log p acidic was 3.06.

`CCN(C)C=Nc1cc(Cl)c(Oc2ccc(Br)c(C(C)C)c2)cc1C` [compound 589]: the “log p HCO2H” value came to 2.84 and the log p neutral worked out at 6.58.

Regarding `CC(C)N(C)C=Nc1cc(Cl)c(Oc2ccc(Cl)c(C(F)(F)F)c2)cc1Cl` [compound 817], the “log p H3PO4” value was found to be 2.74, the “log p HCO2H” value was found to be 2.8 and the log p neutral came to 5.88.

For the compound `Cc1cc(Oc2ccc(Cl)c(C(C)C)c2)c(Cl)cc1N=CN(C)C(C)C` [compound 572], the “log p HCO2H” value came to 2.87 and the log p neutral turned out to be 6.70.

For the compound `CCN(C)C=Nc1cc(Cl)c(Oc2cccc(C(C)(C)C)c2)cc1Cl` [compound 806], the “log p H3PO4” value is recorded as 2.74, the “log p HCO2H” value worked out at 2.79 and the log p neutral was 5.91.

On to `FC(F)(F)c1cc(Oc2cc(Cl)c(N=CN3CCCCC3)cc2Cl)ccc1Cl` [compound 819], for which the “log p H3PO4” value is given as 2.85, the “log p HCO2H” value worked out at 3 and the log p neutral is on record as 6.12.

As for `Cc1cc(N=CN2CCCCC2)c(Cl)cc1Oc1ccc(Cl)c(C(C)C)c1` [compound 901], the “log p H3PO4” value worked out at 3.12, the “log p HCO2H” value was determined as 3 and the log p neutral was 6.72.

In turn, `CCCN(C)C=Nc1cc(Cl)c(Oc2cc(Cl)cc(C(F)(F)F)c2)cc1C` [compound 566] yielded a log p acidic of 2.83.

`CCN(C)C=Nc1cc(F)c(-c2ccc(Cl)c(C(F)(F)F)c2)cc1F` [compound 854] gave a log p acidic of 2.22.

`CC(C)N(C)C=Nc1cc(Cl)c(Oc2cccc(C(C)(C)C)c2)cc1Cl` [compound 807]: the “log p H3PO4” value worked out at 2.7, the “log p HCO2H” value was 2.82 and the log p neutral is listed as 6.13.

Take `CCN(C)C=Nc1cc(C)c(Oc2nc(C(C)(C)C)c(Cl)s2)cc1C` [compound 559]: the log p acidic is 2.76.

`CCN(C)C=Nc1cc(Br)c(Oc2ccc(Cl)c(C(C)(C)C)c2)cc1C` [compound 697] gave a log p acidic of 2.67.

In the case of `CC(C)N(C)C=Nc1cc(Cl)c(Oc2ccc(Cl)c(C(C)(C)C)c2)cc1Cl` [compound 812], the “log p H3PO4” value is on record as 3.35, the “log p HCO2H” value is 3.31 and the log p neutral worked out at 6.81.

As to `CCN(C)C=Nc1cc(F)c(-c2ccc(OC(C)(C)C)cc2)cc1C` [compound 673], the log p acidic is 2.23.

For the compound `CCN(C)C=Nc1cc(C)c(Oc2cccc(Oc3ccccc3)c2)cc1Cl` [compound 880], the “log p H3PO4” value turned out to be 2.63, the “log p HCO2H” value is given as 2.47 and the log p neutral was found to be 5.44.

Take `CCN(C)C=Nc1cc(OC)c(Oc2ccc(Cl)c(C(F)(F)F)c2)cc1OC` [compound 986]: the log p acidic stood at 2.23 and the log p neutral was 4.14.

As to `Cc1cc(N=CN2CCCCC2)c(Cl)cc1Oc1cccc(Oc2ccccc2)c1` [compound 882], the “log p H3PO4” value worked out at 2.82, the “log p HCO2H” value came to 2.66 and the log p neutral worked out at 6.03.

The compound `CCN(C)C=Nc1cc(C)c(Oc2cc(F)cc(C(F)(F)F)c2)cc1C` [compound 371] displayed a log p acidic of 2.31 and a log p neutral of 5.54.

On to `CCN(C)C=Nc1cc(F)c(-c2nnc(C3CC3)s2)cc1C` [compound 681], for which the log p acidic worked out at 1.32.

`Cc1cc(Oc2cc(F)cc(Br)c2)c(C)cc1N=CN(C)C(C)C` [compound 321]: the log p acidic is reported as 2.37 and the log p neutral stood at 6.21.

On to `Cc1cc(Oc2ccc(C#N)c(C(F)(F)F)c2)c(C)cc1N=CN1CCCCC1` [compound 228], for which the log p acidic was found to be 1.92, the “log p HCO2H” value was 2.14 and the log p neutral is reported as 5.35.

On to `FC(F)(F)c1cc(Oc2cc(Cl)c(N=CN3CCCCC3)cc2C(F)(F)F)ccc1Cl` [compound 951], for which the “log p H3PO4” value amounted to 3.03, the “log p HCO2H” value worked out at 3.42 and the log p neutral stood at 6.2.

Consider `COc1cc(Oc2ccc(Cl)c(C(F)(F)F)c2)c(OC)cc1N=CN(C)C(C)C` [compound 987], for which the log p acidic is 2.35 and the log p neutral is recorded as 4.5.

Regarding `CCN(C)C=Nc1cc(F)c(-c2ccc(Cl)c(C(F)(F)F)c2)cc1C` [compound 656], the log p acidic came to 2.37.

Consider `CN(C)C=Nc1cc(Cl)c(Oc2ccc(Cl)c(C(C)(C)C)c2)cc1Cl` [compound 810], for which the “log p H3PO4” value came to 2.9, the “log p HCO2H” value is recorded as 2.94 and the log p neutral worked out at 6.13.

For `CN(C)C=Nc1cc(C(F)(F)F)c(Oc2ccc(Cl)c(C(F)(F)F)c2)cc1Cl` [compound 947], the “log p H3PO4” value is 2.61, the “log p HCO2H” value amounted to 2.78 and the log p neutral is 5.39.

For the compound `CCN(C)C=Nc1cc(Cl)c(Oc2nc(C(C)(C)C)ns2)cc1Cl` [compound 825], the “log p H3PO4” value is 2.34, the “log p HCO2H” value is reported as 2.56 and the log p neutral is recorded as 5.25.

In the case of `Cc1cc(N=CN(C)C(C)C)c(Cl)cc1Oc1ccc(C(C)C)cc1` [compound 889], the “log p H3PO4” value is 2.87, the “log p HCO2H” value was found to be 2.62 and the log p neutral is 5.91.

Take `CCN(C)C=Nc1cc(F)c(-c2ccc(Cl)cc2)cc1C` [compound 664]: the “log p H3PO4” value was determined as 2.13.

On to `CCCN(C)C=Nc1cc(Cl)c(Oc2ccc(Cl)c(C(C)C)c2)cc1C` [compound 571], for which the “log p HCO2H” value was 3.03 and the log p neutral was determined as 6.79.

Compound `CCN(C)C=Nc1cc(Cl)c(Oc2nc(C3(Cl)CC3)ns2)cc1C` [compound 612] registered a log p acidic of 1.72.

Compound `CCN(C)C=Nc1cc(OC)c(-c2ccc(C)cc2)cc1OC` [compound 999] came in with a log p acidic of 1.89.

Turning to `CN(C)C=Nc1cc(Cl)c(Oc2ccc(Cl)c(C(F)(F)F)c2)cc1Cl` [compound 815], the “log p H3PO4” value is 2.35, the “log p HCO2H” value is listed as 2.45 and the log p neutral is 5.15.

Consider `CC(C)(C)c1cc(Oc2cc(F)c(N=CN3CCCCC3)cc2F)ccc1Cl` [compound 836], for which the log p acidic is reported as 2.71 and the log p neutral worked out at 5.74.

For the compound `Cc1cc(Oc2ccc(Cl)c(C(F)(F)F)c2)c(C)cc1N=CN1CCCCC1` [compound 36], the “log p HCO2H” value is recorded as 2.59 and the log p neutral was 6.36.

On to `CC(C)(C)c1cc(Oc2cc(Cl)c(N=CN3CCCCC3)cc2C(F)(F)F)ccc1Cl` [compound 946], for which the “log p H3PO4” value is 3.61, the “log p HCO2H” value is on record as 3.68 and the log p neutral was found to be 7.1.

As to `CC(C)N(C)C=Nc1cc(Cl)c(Oc2nc(C(C)(C)C)ns2)cc1Cl` [compound 826], the “log p H3PO4” value turned out to be 2.53, the “log p HCO2H” value amounted to 2.78 and the log p neutral is recorded as 5.61.

Take `CCc1cc(Oc2cc(C)c(N=CN(C)C3CC3)cc2Cl)ccc1Cl` [compound 585]: the “log p HCO2H” value turned out to be 2.89 and the log p neutral is listed as 6.34.

As for `Cc1cc(Oc2ccc(Cl)c(C(C)(C)C)c2)c(Cl)cc1N=CN(C)C1CC1` [compound 577], the “log p HCO2H” value worked out at 3.24 and the log p neutral was 6.94.

As to `CCN(C)C=Nc1cc(Cl)c(Oc2ccc(Cl)c(C(C)C)c2)cc1C` [compound 570], the “log p HCO2H” value is 2.95 and the log p neutral came to 6.37.

For the compound `CC(C)(C)c1cc(Oc2cc(Cl)c(N=CN3CCCCC3)cc2Cl)ccc1Cl` [compound 814], the “log p H3PO4” value worked out at 3.45, the “log p HCO2H” value came out at 3.62 and the log p neutral came to 7.08.

As for `COc1cc(Oc2ccc(Cl)c(C(C)(C)C)c2)c(OC)cc1N=CN(C)C` [compound 981], the “log p HCO2H” value was 3.11 and the log p neutral is given as 7.36.

For `Cc1cc(N=CN(C)C(C)C)c(Cl)cc1Oc1ccc(Cl)c(C(C)(C)C)c1` [compound 904], the “log p H3PO4” value came to 1.35, the “log p HCO2H” value worked out at 3.01 and the log p neutral was found to be 6.87.

Source of the values: patent US20100113276A1, “USE OF N2-PHENYLAMIDINES AS HERBICIDES” (BAYER CROPSCIENCE AG, priority 2007, published 2010).
